Assay results as given in PubChem BioAssay AID2060904 (Molecular Pharmacology Branch, DTP, NCI, 2025).

Tested on: 349418-098-R-PDC complex spheroid viability
Experiment: Anticancer human tumor 349418-098-R-PDC patient-derived lung adenocarcinoma cell line growth inhibition [RAS]
Conditions: for IC50: curve of first compound; for viability, T/C: stronger effect = lower value
In short: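 Multi-cell-type spheroids: tumor cells plus HUVEC endothelial cells and mesenchymal stem cells. RAS-pathway inhibitors were combined with targeted agents, each dosed in half-log steps down from clinical Cmax, or from 10 microM when Cmax was unknown.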

[1] = second compound 0.00316 µM, first compound 0.0316 µM
[2] = second compound 0.00316 µM, first compound 0.1 µM
[3] = second compound 0.00316 µM, first compound 0.316 µM
[4] = second compound 0.00316 µM, first compound 1 µM
[5] = second compound 0.00316 µM, first compound 3.16 µM
[6] = second compound 0.00316 µM, first compound 10 µM
[7] = second compound 0.01 µM, first compound 0.0316 µM
[8] = second compound 0.01 µM, first compound 0.1 µM
[9] = second compound 0.01 µM, first compound 0.316 µM
[10] = second compound 0.01 µM, first compound 1 µM
[11] = second compound 0.01 µM, first compound 3.16 µM
[12] = second compound 0.01 µM, first compound 10 µM
[13] = second compound 0.0316 µM, first compound 0.0316 µM
[14] = second compound 0.0316 µM, first compound 0.1 µM
[15] = second compound 0.0316 µM, first compound 0.316 µM
[16] = second compound 0.0316 µM, first compound 1 µM
[17] = second compound 0.0316 µM, first compound 3.16 µM
[18] = second compound 0.0316 µM, first compound 10 µM
[19] = second compound 0.1 µM, first compound 0.0316 µM
[20] = second compound 0.1 µM, first compound 0.1 µM
[21] = second compound 0.1 µM, first compound 0.316 µM
[22] = second compound 0.1 µM, first compound 1 µM
[23] = second compound 0.1 µM, first compound 3.16 µM
[24] = second compound 0.1 µM, first compound 10 µM
[25] = second compound 0.316 µM, first compound 0.0316 µM
[26] = second compound 0.316 µM, first compound 0.1 µM
[27] = second compound 0.316 µM, first compound 0.316 µM
[28] = second compound 0.316 µM, first compound 1 µM
[29] = second compound 0.316 µM, first compound 3.16 µM
[30] = second compound 0.316 µM, first compound 10 µM
[31] = second compound 1 µM, first compound 0.0316 µM
[32] = second compound 1 µM, first compound 0.1 µM
[33] = second compound 1 µM, first compound 0.316 µM
[34] = second compound 1 µM, first compound 1 µM
[35] = second compound 1 µM, first compound 3.16 µM
[36] = second compound 1 µM, first compound 10 µM
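Note: spheroids exposed to compound for seven days before viability readout.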

## CC(=O)OC12COC1CC(O)C1(C)C(=O)C(O)C3=C(C)C(OC(=O)C(O)C(NC(=O)OC(C)(C)C)c4ccccc4)CC(O)(C(OC(=O)c4ccccc4)C21)C3(C)C (centres undefined) + C=CC(=O)N1CCN(c2nc(OCC3CCCN3C)nc3c(F)c(-c4nc(N)cc(C)c4C(F)(F)F)c(Cl)cc23)C(C)C1
Second compound 0.00316 µM
  IC50: < 31.6 nM
Second compound 0.01 µM
  IC50: < 31.6 nM
Second compound 0.0316 µM
  IC50: < 31.6 nM
Second compound 0.1 µM
  IC50: < 31.6 nM
Second compound 0.316 µM
  IC50: < 31.6 nM
Second compound 1 µM
  IC50: < 31.6 nM
[1]
  viability, T/C: 12.6%
[2]
  viability, T/C: 17.8%
[3]
  viability, T/C: 16.3%
[4]
  viability, T/C: 20.1%
[5]
  viability, T/C: 23.8%
[6]
  viability, T/C: 23.6%
[7]
  viability, T/C: 12.8%
[8]
  viability, T/C: 16.6%
[9]
  viability, T/C: 14.5%
[10]
  viability, T/C: 20.7%
[11]
  viability, T/C: 19.3%
[12]
  viability, T/C: 19.1%
[13]
  viability, T/C: 16.9%
[14]
  viability, T/C: 15.2%
[15]
  viability, T/C: 15.4%
[16]
  viability, T/C: 22.6%
[17]
  viability, T/C: 22.9%
[18]
  viability, T/C: 26.5%
[19]
  viability, T/C: 13%
[20]
  viability, T/C: 15%
[21]
  viability, T/C: 16.5%
[22]
  viability, T/C: 16.1%
[23]
  viability, T/C: 24.3%
[24]
  viability, T/C: 21.4%
[25]
  viability, T/C: 16.8%
[26]
  viability, T/C: 18.1%
[27]
  viability, T/C: 18.2%
[28]
  viability, T/C: 18.2%
[29]
  viability, T/C: 21.6%
[30]
  viability, T/C: 25.6%
[31]
  viability, T/C: 13.8%
[32]
  viability, T/C: 12%
[33]
  viability, T/C: 18.8%
[34]
  viability, T/C: 20.2%
[35]
  viability, T/C: 20.2%
[36]
  viability, T/C: 25.8%

## CCC(CC)c1cc(NC2CCC(N)C2)n2nccc2n1 (centres undefined) + C=CC(=O)N1CCN(c2nc(OCC3CCCN3C)nc3c(F)c(-c4nc(N)cc(C)c4C(F)(F)F)c(Cl)cc23)C(C)C1
Second compound 0.00316 µM
  IC50: 720 nM
Second compound 0.01 µM
  IC50: 996 nM
Second compound 0.0316 µM
  IC50: 797 nM
Second compound 0.1 µM
  IC50: 884 nM
Second compound 0.316 µM
  IC50: 588 nM
Second compound 1 µM
  IC50: 1100 nM
[1]
  viability, T/C: 114%
[2]
  viability, T/C: 108%
[3]
  viability, T/C: 76.1%
[4]
  viability, T/C: 43.2%
[5]
  viability, T/C: 3.31%
[6]
  viability, T/C: 2.99%
[7]
  viability, T/C: 110%
[8]
  viability, T/C: 86.8%
[9]
  viability, T/C: 84.8%
[10]
  viability, T/C: 53.8%
[11]
  viability, T/C: 3.18%
[12]
  viability, T/C: 2.92%
[13]
  viability, T/C: 85.3%
[14]
  viability, T/C: 114%
[15]
  viability, T/C: 88%
[16]
  viability, T/C: 40.8%
[17]
  viability, T/C: 2.8%
[18]
  viability, T/C: 2.99%
[19]
  viability, T/C: 73%
[20]
  viability, T/C: 80.5%
[21]
  viability, T/C: 102%
[22]
  viability, T/C: 45.8%
[23]
  viability, T/C: 3.01%
[24]
  viability, T/C: 3.2%
[25]
  viability, T/C: 111%
[26]
  viability, T/C: 88.1%
[27]
  viability, T/C: 75.7%
[28]
  viability, T/C: 31.7%
[29]
  viability, T/C: 3.42%
[30]
  viability, T/C: 2.54%
[31]
  viability, T/C: 78.8%
[32]
  viability, T/C: 71.9%
[33]
  viability, T/C: 85.4%
[34]
  viability, T/C: 54.3%
[35]
  viability, T/C: 3.58%
[36]
  viability, T/C: 4.86%
